Patent US10689354B2, “Aminoazole derivative” (Teijin Pharma Limited, priority 2015, dated 2020)

Assays:
[1] = molecular target: T1, androgen receptor (AR-LBD) (Rattus norvegicus, UniProt P15207); assay: Evaluation of androgen receptor affinity (PolarScreen Androgen Receptor Competitor Assay Kit, Red; fluorescence polarization); conditions: 22° C. for 5 hours, relative to binding rate of 1 μM DHT, read-out: AR affinity (pEC50) (converted)
T1 construct: 5 μL of 2×AR-LBD/Fluoromone AL Red Complex contained in the kit; purchased Invitrogen
T1 sequence (P15207 651-882 limits assumed): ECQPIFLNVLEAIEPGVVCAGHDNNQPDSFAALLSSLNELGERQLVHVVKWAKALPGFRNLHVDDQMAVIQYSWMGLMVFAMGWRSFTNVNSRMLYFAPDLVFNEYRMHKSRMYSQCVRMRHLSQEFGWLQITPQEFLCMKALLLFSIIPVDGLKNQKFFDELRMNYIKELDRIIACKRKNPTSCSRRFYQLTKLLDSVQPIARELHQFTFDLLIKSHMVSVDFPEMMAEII
How it was run: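 Duplicate wells of test compound were mixed with the kit's rat AR-LBD–Fluoromone AL Red tracer complex and left 5 hours at 22 °C before polarization was read. A 4-parameter fit gave pEC50, with binding rate referenced to 1 μM dihydrotestosterone.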

[2] = molecular target: T2, human androgen receptor (Homo sapiens, UniProt P10275); assay: Reporter assay of an androgen receptor responsive sequence (luciferase, transiently transfected HEK293 cells); type: cell-based; conditions: 24 hours incubation, relative to activity of 100 nM DHT, read-out: AR transcriptive activity (pEC50) (converted)
T2 construct: expressed in transfected cells; host or cells: HEK293
T2 sequence (P10275 1-920): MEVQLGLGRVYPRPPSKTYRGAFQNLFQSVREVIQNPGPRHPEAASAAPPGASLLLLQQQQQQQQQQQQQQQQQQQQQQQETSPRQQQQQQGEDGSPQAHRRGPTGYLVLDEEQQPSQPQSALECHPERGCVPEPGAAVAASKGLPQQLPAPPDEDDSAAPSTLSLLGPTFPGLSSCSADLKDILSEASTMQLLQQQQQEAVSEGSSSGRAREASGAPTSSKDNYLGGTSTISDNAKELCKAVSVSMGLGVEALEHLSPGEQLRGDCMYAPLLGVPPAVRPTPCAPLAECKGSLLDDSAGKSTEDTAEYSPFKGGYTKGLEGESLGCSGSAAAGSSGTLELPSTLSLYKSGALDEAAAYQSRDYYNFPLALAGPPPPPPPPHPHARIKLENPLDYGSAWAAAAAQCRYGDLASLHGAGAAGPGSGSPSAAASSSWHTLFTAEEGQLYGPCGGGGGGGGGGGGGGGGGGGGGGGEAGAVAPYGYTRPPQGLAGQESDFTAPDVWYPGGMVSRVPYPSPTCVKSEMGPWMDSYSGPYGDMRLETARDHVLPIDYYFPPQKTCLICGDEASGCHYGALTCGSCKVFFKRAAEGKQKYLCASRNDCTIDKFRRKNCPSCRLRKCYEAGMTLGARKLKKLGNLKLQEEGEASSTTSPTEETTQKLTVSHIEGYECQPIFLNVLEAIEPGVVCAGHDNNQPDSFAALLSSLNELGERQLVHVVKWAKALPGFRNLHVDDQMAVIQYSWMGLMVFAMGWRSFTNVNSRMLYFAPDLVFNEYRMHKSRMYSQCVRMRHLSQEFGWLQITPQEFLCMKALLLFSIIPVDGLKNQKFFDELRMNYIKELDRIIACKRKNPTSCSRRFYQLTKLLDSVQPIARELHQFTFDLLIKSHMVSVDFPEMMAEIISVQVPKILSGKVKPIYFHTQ
Procedure: Reporter Assay of an Androgen Receptor Responsive Sequence
To examine the agonist activity of compounds for androgen, a reporter assay using an androgen receptor responsive sequence was conducted.
Using Lipofectamine 2000 (Invitrogen), a plasmid mixture (pGL4-ARE (200 ng/well), pcDNA3-hAR (20 ng/well), pRL-TK (Promega) (150 ng/well)) was transiently transfected into HEK293 cells. The contents of the plasmid (mixture) are as follows:
pGL4-ARE is a reporter plasmid containing firefly luciferase sequence under the control of androgen receptor responsive sequence; pcDNA3-hAR is a plasmid containing full-length sequence of human androgen receptor under the constant control of CMV promoter; pRL-TK is a plasmid containing Renilla Luciferase sequence under the control of herpes simplex virus thymidine kinase and used as an internal standard for evaluations of transfection efficiency and compound toxicity.
After the incubation of Lipofectamine 2000 and the plasmid mixture in Opti-MEM for 20 minutes, the mixture was mixed with a cell suspension prepared with Opti-MEM in the similar way, and the cell suspension was plated to a 96-well plate at 20000 cells/well. The transfection was conducted by incubating the plates under the condition of 5% CO2 at 37° C. for 3 hours. Three hours after the transfection, the culture medium was removed and a compound solution prepared by DMEM supplemented with 5% FBS and treated with charcoal was added, and the mixture was incubated under the condition of 5% CO2 at 37° C. for 24 hours. After the incubation with the compound, luciferase activities were measured with a luminometer using Dual-Glo™ Luciferase Assay System (Promega). The measurement of the luciferase activities was performed in accordance with the protocol recommended by Promega. The activity of the compound was determined by comparing to the activity of 100 nM of DHT, and quantified the logarithm value (pEC50) of reciprocal value of the effective concentration of the compound which is equal to 50% of the activity value by applying a 4 parameter goodness-of-fit calculation.

EC50 [1] [nM] | EC50 [2] [nM] | Compound
100 | 200 | Cc1sc(N(Cc2cc(F)cc(F)c2F)c2ccc(C#N)cc2)nc1C(=O)NS(C)(=O)=O [Compound 109, 2-[4-cyano-N-[(2,3,5-trifluorophenyl)methyl]anilino]-5-methyl-N-methylsulfonyl-thiazole-4-carboxamide]
39.8 | 316 | Cc1oc(N(CCc2ccc(Cl)cc2)Cc2ccccc2)nc1C(=O)NS(C)(=O)=O [Example 220, 2-[benzyl-[2-(4-chlorophenyl)ethyl]amino]-5-methyl-N-methylsulfonyl-oxazole-4-carboxamide]
200 | 631 | Cc1sc(N(CCn2cc(Cl)cn2)Cc2ccccc2)nc1C(=O)NS(C)(=O)=O [Compound 709, 2-[benzyl-[2-(4-chloropyrazol-1-yl)ethyl]amino]-5-methyl-N-methylsulfonyl-thiazole-4-carboxamide]
100 | 158 | Cc1sc(N(Cc2ccccc2)c2ccc(C#N)cc2)nc1C(=O)NS(=O)(=O)Cc1ccncc1 [Compound 395, 2-(N-benzyl-4-cyano-anilino)-5-methyl-N-(4-pyridylmethylsulfonyl)thiazole-4-carboxamide]
316 | 631 | Cc1sc(N(Cc2cnc(C(F)(F)F)cn2)c2ccc(C#N)cc2)nc1C(=O)NS(C)(=O)=O [Compound 537, 2-[4-cyano-N-[[5-(trifluoromethyl)pyrazin-2-yl]methyl]anilino]-5-methyl-N-methylsulfonyl-thiazole-4-carboxamide]
 | > 10000 | Cc1sc(N(CCC2CCCCC2)Cc2ccc(Cl)cc2)nc1C(=O)NS(=O)(=O)C1CC1 [Compound 730, 2-[(4-chlorophenyl)methyl-(2-cyclohexylethyl)amino]-N-cyclopropylsulfonyl-5-methyl-thiazole-4-carboxamide]
> 2000 |  | Cc1sc(N(Cc2ccccc2)c2ccnc3ccccc23)nc1C(=O)NS(C)(=O)=O [Example 236, 2-[benzyl(4-quinolyl)amino]-5-methyl-N-methylsulfonyl-thiazole-4-carboxamide]
> 2000 |  | Cc1sc(N(Cc2ccccc2)c2ccccn2)nc1C(=O)NS(C)(=O)=O [Compound 408, 2-[benzyl(2-pyridyl)amino]-5-methyl-N-methylsulfonyl-thiazole-4-carboxamide]
> 2000 |  | Cc1sc(N(Cc2ccccc2)c2cccnc2)nc1C(=O)NS(C)(=O)=O [Compound 49, 2-[benzyl(3-pyridyl)amino]-5-methyl-N-methylsulfonyl-thiazole-4-carboxamide]
> 2000 |  | Cc1sc(N(CC2CC2)c2ccc(C#N)cc2)nc1C(=O)NS(C)(=O)=O [Compound 67, 2-[4-cyano-N-(cyclopropylmethyl)anilino]-5-methyl-N-methylsulfonyl-thiazole-4-carboxamide]
> 2000 |  | Cc1sc(N(Cc2ccccc2)c2ccc(C#N)cc2)nc1C(=O)NS(=O)(=O)CCN1C(=O)c2ccccc2C1=O [Compound 373, 2-(N-benzyl-4-cyano-anilino)-N-[2-(1,3-dioxoisoindolin-2-yl)ethylsulfonyl]-5-methyl-thiazole-4-carboxamide]
> 2000 |  | Cc1sc(N(Cc2ccc(OC(F)(F)F)cc2)c2ccc(C#N)cc2)nc1C(=O)NS(=O)(=O)CCCN1CCOCC1 [Compound 541, 2-[4-cyano-N-[[4-(trifluoromethoxy)phenyl]methyl]anilino]-5-methyl-N-(3-morpholinopropylsulfonyl)thiazole-4-carboxamide]
> 2000 |  | Cc1sc(N(Cc2ccccc2)Cc2csc3cc(C#N)ccc23)nc1C(=O)NS(C)(=O)=O [Compound 675, 2-[benzyl-[(6-cyanobenzothiophen-3-yl)methyl]amino]-5-methyl-N-methylsulfonyl-thiazole-4-carboxamide]
> 2000 |  | Cc1sc(N(Cc2ccccc2)c2cccc(C#N)c2)nc1C(=O)NS(C)(=O)=O [Example 225, 2-(N-benzyl-3-cyano-anilino)-5-methyl-N-methylsulfonyl-thiazole-4-carboxamide]
> 2000 |  | Cc1sc(N(CC2CCCCO2)c2ccc(C#N)cc2)nc1C(=O)NS(C)(=O)=O (stereo not shown) [Compound 345, 2-[4-cyano-N-(tetrahydropyran-2-ylmethyl)anilino]-5-methyl-N-methylsulfonyl-thiazole-4-carboxamide]
794 |  | Cc1nc(CN(c2ccc(C#N)cc2)c2nc(C(=O)NS(C)(=O)=O)c(Cl)s2)cs1 [Example 278, 5-chloro-2-[4-cyano-N-[(2-methylthiazol-4-yl)methyl]anilino]-N-methylsulfonyl-thiazole-4-carboxamide]
794 |  | Cc1sc(N(CCc2cccc(N(C)C)c2)c2ccc(C#N)cc2)nc1C(=O)NS(C)(=O)=O [Compound 475, 2-[4-cyano-N-[2-[3-(dimethylamino)phenyl]ethyl]anilino]-5-methyl-N-methylsulfonyl-thiazole-4-carboxamide]
> 2000 |  | Cc1sc(N(Cc2ccccc2)c2cccc(CCO)c2)nc1C(=O)NS(C)(=O)=O [Compound 605, 2-[N-benzyl-3-(2-hydroxyethyl)anilino]-5-methyl-N-methylsulfonyl-thiazole-4-carboxamide]
> 2000 |  | Cc1sc(N(CC(C)C)c2ccc(C#N)cc2)nc1C(=O)NS(C)(=O)=O [Compound 73, 2-(4-cyano-N-isobutyl-anilino)-5-methyl-N-methylsulfonyl-thiazole-4-carboxamide]
> 2000 |  | Cc1sc(N(CCC2CCCN2C)c2ccc(C#N)cc2)nc1C(=O)NS(C)(=O)=O (stereo not shown) [Compound 481, 2-[4-cyano-N-[2-(1-methylpyrrolidin-2-yl)ethyl]anilino]-5-methyl-N-methylsulfonyl-thiazole-4-carboxamide]
> 2000 |  | Cc1sc(N(c2ccc(C#N)cc2F)[C@@H](CO)Cc2ccccc2)nc1C(=O)NS(C)(=O)=O [Example 287, 2-(N-[(1R)-1-benzyl-2-hydroxy-ethyl]-4-cyano-2-fluoro-anilino)-5-methyl-N-methylsulfonyl-thiazole-4-carboxamide]
> 2000 |  | Cc1sc(N(Cc2ccccc2)c2cnccn2)nc1C(=O)NS(C)(=O)=O [Compound 55, 2-[benzyl(pyrazin-2-yl)amino]-5-methyl-N-methylsulfonyl-thiazole-4-carboxamide]
1260 |  | Cc1sc(N(Cc2ccc(OCC(=O)N(C)C)cc2)c2ccc(C#N)cc2)nc1C(=O)NS(C)(=O)=O [Compound 570, 2-[4-cyano-N-[[4-[2-(dimethylamino)-2-oxo-ethoxy]phenyl]methyl]anilino]-5-methyl-N-methylsulfonyl-thiazole-4-carboxamide]
